Test system: 786-0 complex spheroid viability
Assay: Anticancer human tumor 786-0 cell line growth inhibition;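 also: spheroids exposed to agents for seven days before readout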
Details: for IC50: curve of first compound; for viability, T/C: stronger effect = lower value; active = viability on the fitted dose curve at most 10% of control; inactive = the rest
Source text: Multicellular complex tumor spheroid response to LSD1 Inhibitor Iadademstat in combination with a variety of drugs and investigational agents in selected tumor cell lines
The current study was undertaken to assess response to LSD1 inhibitors in combination with standard-of-care drugs and investigational agents in solid tumor complex spheroid models as well as in the K-562 leukemia. Complex spheroids include a stromal component modeled by human endothelial cells (HUVEC) and fibroblasts modeled by human mesenchymal stem cells (MSCs). The concentration ranges selected for each drug and investigational agent were based upon clinically achievable concentrations if the clinical Cmax of the agent was known.
Compounds. The drugs and investigational agents used in this study are listed on Table 1. All of the agents used, including staurosporine (NSC755774) and gemcitabine (NSC613327), were obtained from the Developmental Therapeutics Program, NCI. FDA-approved anticancer drugs are available from the NCI at http://dtp.nci.nih.gov/branches/dscb/oncology_drugset_explanation.html. Drugs and investigational agents were >95% pure by proton nuclear magnetic resonance (NMR) and liquid chromatography/mass spectrometry (LC/MS). Stock solutions were prepared at 400x in DMSO, stored at -70 degrees C, and diluted in fresh medium prior to their use. The final concentration of DMSO in cell culture wells never exceeded 0.25% (v/v). The FDA-approved anticancer drug set is available from the Developmental Therapeutics Program at https://dtp.cancer.gov/organization/dscb/obtaining/available_plates.htm. All drugs and investigational agents were tested over a range starting from a high concentration at or near the clinical Cmax and decreasing in half-log increments. If the clinical Cmax for an agent had not been determined, the highest concentration tested was 10 microM.
Cell Lines. The patient-derived cancer cell (PDC) lines: 292921-168-R-J2-PDC, K24384-001-R-PDC, and 521955-158-R2-J5-PDC pancreatic carcinomas, 556581-035-R-J1 ovarian carcinoma, 324938-238-R-J1-PDC, 855422-203-R-J1-PDC and 883617-216-R-J1-PDC urothelial bladder carcinomas, 743489-274-T-PDC renal cell carcinoma, 138582-R-J1 Merkel cell tumor, K60290-347-R-J1 and K57222-313-R-J1-PDC glioblastomas, 653999-131-R-J2-PDC, LG0703-F948-PDC, and 349418-098-R-PDC non-small cell lung carcinomas, 885512-296-R-J2-PDC, 171881-019-R-J1-PDC breast carcinomas and 186277-243-T-J2-PDC and 233499-124-R-J2-PDC colon carcinomas were obtained from the NCI Patient-Derived Models Repository (PDMR, https://pdmr.cancer.gov). The established cell lines NCI/ADR-RES (RRID:CVCL_14520 and OVCAR-5 (RRID:CVCL_1628) ovarian carcinomas, 786-O (RRID:CVCL_1051) and A498 (RRID:CVCL_A498) renal cell carcinoma, NCI-H211 (ATCC, cat. CRL-5824; RRID:CVCL_1529), NCI-H196 (ATCC, cat. CRL-5823, RRID:CVCL_1509), SW 1271 (ATCC, cat. CRL-2177, RRID:CVCL_1716) and NCI-H1876 (ATCC, cat. CRL-5902, RRID:CVCL_1503) small cell lung carcinomas, MDA-MB-231 (RRID:CVCL_0062) and MDA-MB-468 (RRID:CVCL_0419)breast carcinomas (10-12). Pooled donor human umbilical vein endothelial cells (HUVEC, Lonza, cat. CC-2519) and human mesenchymal stem cells (hMSC, Lonza, cat. PT-2501) were purchased from Lonza (Walkersville, MD).
Cell Culture. All cells were maintained in an incubator at 37 degrees C and 5% CO2 with 95% humidity. The PDC lines were cultured according to standard operating procedures established by the NCI PDMR (https://pdmr.cancer.gov). Briefly all PDCs were thawed and cultured in Matrigel-coated flasks prepared with a working solution of 1X Ham's F-12 nutrient mix, without supplementation (Invitrogen, Waltham, MA, cat. 11765054), 100 U/mL penicillin-streptomycin (Invitrogen, cat. 15140122), and 2.5% Matrigel (Corning Inc., Corning, NY, cat. 354248) for the first three passages. […]

[1] = second compound 0.1 µM, first compound 0.00949 µM
[2] = second compound 0.1 µM, first compound 0.03 µM
[3] = second compound 0.1 µM, first compound 0.0949 µM
[4] = second compound 0.1 µM, first compound 0.3 µM
[5] = second compound 0.1 µM, first compound 0.949 µM
[6] = second compound 0.1 µM, first compound 3 µM
[7] = second compound 0.316 µM, first compound 0.00949 µM
[8] = second compound 0.316 µM, first compound 0.03 µM
[9] = second compound 0.316 µM, first compound 0.0949 µM
[10] = second compound 0.316 µM, first compound 0.3 µM
[11] = second compound 0.316 µM, first compound 0.949 µM
[12] = second compound 0.316 µM, first compound 3 µM
[13] = second compound 1 µM, first compound 0.00949 µM
[14] = second compound 1 µM, first compound 0.03 µM
[15] = second compound 1 µM, first compound 0.0949 µM
[16] = second compound 1 µM, first compound 0.3 µM
[17] = second compound 1 µM, first compound 0.949 µM
[18] = second compound 1 µM, first compound 3 µM
[19] = second compound 3.16 µM, first compound 0.00949 µM
[20] = second compound 3.16 µM, first compound 0.03 µM
[21] = second compound 3.16 µM, first compound 0.0949 µM
[22] = second compound 3.16 µM, first compound 0.3 µM
[23] = second compound 3.16 µM, first compound 0.949 µM
[24] = second compound 3.16 µM, first compound 3 µM
[25] = second compound 10 µM, first compound 0.00949 µM
[26] = second compound 10 µM, first compound 0.03 µM
[27] = second compound 10 µM, first compound 0.0949 µM
[28] = second compound 10 µM, first compound 0.3 µM
[29] = second compound 10 µM, first compound 0.949 µM
[30] = second compound 10 µM, first compound 3 µM

COc1cc(C2c3cc4c(cc3C(OC3OC5COC(C)OC5C(O)C3O)C3COC(=O)C23)OCO4)cc(OC)c1O (stereo not given) + NC1CCC(NC2CC2c2ccccc2)CC1
115 nM: IC50 (second compound 10 µM)
inactive: viability, T/C [1] 115% | viability, T/C [2] 105% | viability, T/C [3] 61.1% | viability, T/C [4] 44.3% | viability, T/C [5] 22% | viability, T/C [6] 9.16% | viability, T/C [7] 122% | viability, T/C [8] 119% | viability, T/C [9] 65.7% | viability, T/C [10] 45.8% | viability, T/C [11] 19.4% | viability, T/C [12] 8.96% | viability, T/C [13] 118% | viability, T/C [14] 110% | viability, T/C [15] 66.4% | viability, T/C [16] 40.7% | viability, T/C [17] 18.8% | viability, T/C [19] 107% | viability, T/C [20] 104% | viability, T/C [21] 56.2% | viability, T/C [22] 34.4% | viability, T/C [23] 17.1% | viability, T/C [24] 7.91% | viability, T/C [25] 81.6% | viability, T/C [26] 79.6% | viability, T/C [27] 48.1% | viability, T/C [28] 33.2% | viability, T/C [29] 16.4%
149 nM: IC50 (second compound 3.16 µM)
203 nM: IC50 (second compound 0.1 µM)
199 nM: IC50 (second compound 1 µM)
active: viability, T/C [18] 8.18% | viability, T/C [30] 4.68%
216 nM: IC50 (second compound 0.316 µM)

Nc1ncn(C2CC(O)C(CO)O2)c(=O)n1 (stereo not given) + NC1CCC(NC2CC2c2ccccc2)CC1
> 1000 nM: IC50 (second compound 0.1 µM) | IC50 (second compound 0.316 µM) | IC50 (second compound 1 µM) | IC50 (second compound 3.16 µM)
inactive: viability, T/C (second compound 0.1 µM, first compound 0.00316 µM) 115% | viability, T/C (second compound 0.1 µM, first compound 0.01 µM) 117% | viability, T/C (second compound 0.1 µM, first compound 0.0316 µM) 97.1% | viability, T/C (second compound 0.1 µM, first compound 0.1 µM) 82.6% | viability, T/C (second compound 0.1 µM, first compound 0.316 µM) 72.8% | viability, T/C (second compound 0.1 µM, first compound 1 µM) 56% | viability, T/C (second compound 0.316 µM, first compound 0.00316 µM) 127% | viability, T/C (second compound 0.316 µM, first compound 0.01 µM) 108% | viability, T/C (second compound 0.316 µM, first compound 0.0316 µM) 95.3% | viability, T/C (second compound 0.316 µM, first compound 0.1 µM) 92.2% | viability, T/C (second compound 0.316 µM, first compound 0.316 µM) 71.4% | viability, T/C (second compound 0.316 µM, first compound 1 µM) 63.1% | viability, T/C (second compound 1 µM, first compound 0.00316 µM) 118% | viability, T/C (second compound 1 µM, first compound 0.01 µM) 99% | viability, T/C (second compound 1 µM, first compound 0.0316 µM) 96.7% | viability, T/C (second compound 1 µM, first compound 0.1 µM) 82.5% | viability, T/C (second compound 1 µM, first compound 0.316 µM) 70.1% | viability, T/C (second compound 1 µM, first compound 1 µM) 59% | viability, T/C (second compound 3.16 µM, first compound 0.00316 µM) 103% | viability, T/C (second compound 3.16 µM, first compound 0.01 µM) 117% | viability, T/C (second compound 3.16 µM, first compound 0.0316 µM) 82.8% | viability, T/C (second compound 3.16 µM, first compound 0.1 µM) 82% | viability, T/C (second compound 3.16 µM, first compound 0.316 µM) 65.2% | viability, T/C (second compound 3.16 µM, first compound 1 µM) 52.6% | viability, T/C (second compound 10 µM, first compound 0.00316 µM) 79.2% | viability, T/C (second compound 10 µM, first compound 0.01 µM) 80.2% | viability, T/C (second compound 10 µM, first compound 0.0316 µM) 82.6% | viability, T/C (second compound 10 µM, first compound 0.1 µM) 69.6% | viability, T/C (second compound 10 µM, first compound 0.316 µM) 58.5% | viability, T/C (second compound 10 µM, first compound 1 µM) 44.6%
628 nM: IC50 (second compound 10 µM)

Nc1ccccc1NC(=O)c1ccc(CNC(=O)OCc2cccnc2)cc1 + NC1CCC(NC2CC2c2ccccc2)CC1
1280 nM: IC50 (second compound 3.16 µM)
1550 nM: IC50 (second compound 0.316 µM)
1670 nM: IC50 (second compound 0.1 µM)
inactive: viability, T/C [1] 115% | viability, T/C [2] 121% | viability, T/C [3] 113% | viability, T/C [4] 110% | viability, T/C [5] 80.9% | viability, T/C [6] 17.7% | viability, T/C [7] 123% | viability, T/C [8] 121% | viability, T/C [9] 119% | viability, T/C [10] 109% | viability, T/C [11] 74.2% | viability, T/C [12] 17.2% | viability, T/C [13] 116% | viability, T/C [14] 116% | viability, T/C [15] 112% | viability, T/C [16] 103% | viability, T/C [17] 74% | viability, T/C [18] 16.7% | viability, T/C [19] 107% | viability, T/C [20] 105% | viability, T/C [21] 103% | viability, T/C [22] 93.6% | viability, T/C [23] 62% | viability, T/C [24] 15.1% | viability, T/C [25] 85.5% | viability, T/C [26] 82.7% | viability, T/C [27] 86.1% | viability, T/C [28] 78.1% | viability, T/C [29] 43%
756 nM: IC50 (second compound 10 µM)
1540 nM: IC50 (second compound 1 µM)
active: viability, T/C [30] 9.91%
